Experimental data reported in paper PMC11844072, “Novel 5,6-dichlorobenzimidazole derivatives as dual BRAFWT and BRAFV600E inhibitors: design, synthesis, anti-cancer activity and molecular dynamics simulations” (BMC Chemistry, 2025).

Tests used:
BRAFWT = target: T1, BRAFWT (Homo sapiens, UniProt P15056); settings: cited from earlier work
T1 construct: purchased BPS Biosciences 78316

PDGFR-β = system: PDGFR-β; set-up: method as in PMID 35636123; settings: cited from earlier work
FLT-3 = system: FLT-3; set-up: method as in PMID 35636123; settings: cited from earlier work
c-KIT = system: c-KIT; set-up: method as in PMID 35636123; settings: cited from earlier work
BRAFV600E = BRAFV600E (Homo sapiens, UniProt P15056, V600E); set-up: purchased BPS Biosciences 48688; settings: cited from earlier work
Chain of BRAFV600E (P15056 whole entry V600E): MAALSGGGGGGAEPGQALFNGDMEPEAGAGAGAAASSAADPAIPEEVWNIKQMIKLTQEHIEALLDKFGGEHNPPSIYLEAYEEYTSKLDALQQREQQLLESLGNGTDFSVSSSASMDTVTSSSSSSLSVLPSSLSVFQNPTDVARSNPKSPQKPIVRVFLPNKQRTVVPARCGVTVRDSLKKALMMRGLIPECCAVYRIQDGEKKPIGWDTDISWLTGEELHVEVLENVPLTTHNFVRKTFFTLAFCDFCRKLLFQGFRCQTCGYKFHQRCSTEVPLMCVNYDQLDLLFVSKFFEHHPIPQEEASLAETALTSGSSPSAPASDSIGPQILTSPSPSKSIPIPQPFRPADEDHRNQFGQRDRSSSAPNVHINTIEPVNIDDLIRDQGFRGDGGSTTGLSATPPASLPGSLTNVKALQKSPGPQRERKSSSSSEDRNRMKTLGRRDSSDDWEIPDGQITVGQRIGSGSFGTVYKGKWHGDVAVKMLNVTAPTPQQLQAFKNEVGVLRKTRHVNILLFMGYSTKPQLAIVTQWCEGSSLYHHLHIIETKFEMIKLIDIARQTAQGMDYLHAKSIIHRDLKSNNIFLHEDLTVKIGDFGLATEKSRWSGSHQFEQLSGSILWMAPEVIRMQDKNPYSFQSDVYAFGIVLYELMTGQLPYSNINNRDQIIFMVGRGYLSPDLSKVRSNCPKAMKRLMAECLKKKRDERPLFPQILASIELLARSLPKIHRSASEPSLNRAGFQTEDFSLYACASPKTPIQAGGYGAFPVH

VEGFR-2 = VEGFR-2 (Homo sapiens, UniProt P35968); set-up: purchased; settings: cited from earlier work
Chain of VEGFR-2 (P35968 20-1356): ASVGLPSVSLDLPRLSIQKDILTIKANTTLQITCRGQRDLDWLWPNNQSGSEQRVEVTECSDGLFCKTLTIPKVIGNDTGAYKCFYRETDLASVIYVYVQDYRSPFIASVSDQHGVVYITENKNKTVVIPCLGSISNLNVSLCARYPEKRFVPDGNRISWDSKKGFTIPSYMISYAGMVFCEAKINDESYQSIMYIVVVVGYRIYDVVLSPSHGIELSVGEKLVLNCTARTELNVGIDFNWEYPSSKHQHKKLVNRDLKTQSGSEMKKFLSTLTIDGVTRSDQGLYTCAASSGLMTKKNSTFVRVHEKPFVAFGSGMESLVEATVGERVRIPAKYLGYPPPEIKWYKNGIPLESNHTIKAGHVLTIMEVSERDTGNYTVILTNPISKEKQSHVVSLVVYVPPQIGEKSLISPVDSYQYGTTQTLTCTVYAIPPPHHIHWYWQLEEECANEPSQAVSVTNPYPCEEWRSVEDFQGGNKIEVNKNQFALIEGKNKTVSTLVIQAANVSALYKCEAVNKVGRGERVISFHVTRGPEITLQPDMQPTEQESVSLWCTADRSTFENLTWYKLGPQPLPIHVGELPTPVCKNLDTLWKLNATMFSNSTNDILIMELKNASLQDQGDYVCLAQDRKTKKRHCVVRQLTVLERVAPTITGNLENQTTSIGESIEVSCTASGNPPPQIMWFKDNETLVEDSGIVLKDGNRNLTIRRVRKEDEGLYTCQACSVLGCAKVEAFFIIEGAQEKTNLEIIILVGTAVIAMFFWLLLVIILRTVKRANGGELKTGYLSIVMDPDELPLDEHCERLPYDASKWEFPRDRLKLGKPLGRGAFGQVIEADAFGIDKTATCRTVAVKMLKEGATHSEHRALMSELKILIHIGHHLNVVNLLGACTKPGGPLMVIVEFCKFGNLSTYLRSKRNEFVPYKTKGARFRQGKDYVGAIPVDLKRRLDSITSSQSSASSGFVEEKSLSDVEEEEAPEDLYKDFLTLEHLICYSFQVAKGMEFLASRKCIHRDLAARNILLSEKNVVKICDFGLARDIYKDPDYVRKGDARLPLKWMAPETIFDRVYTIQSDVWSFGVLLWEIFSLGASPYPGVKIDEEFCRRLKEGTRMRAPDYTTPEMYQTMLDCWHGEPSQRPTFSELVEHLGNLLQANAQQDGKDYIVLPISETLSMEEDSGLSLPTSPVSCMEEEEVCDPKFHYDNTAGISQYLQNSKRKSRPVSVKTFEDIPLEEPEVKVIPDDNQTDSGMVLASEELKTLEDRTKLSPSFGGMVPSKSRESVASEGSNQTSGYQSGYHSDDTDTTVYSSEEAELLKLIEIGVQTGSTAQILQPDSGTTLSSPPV

FGFR-1 = FGFR-1 (Homo sapiens, UniProt P11362); set-up: purchased; settings: cited from earlier work
Chain of FGFR-1 (P11362 22-822): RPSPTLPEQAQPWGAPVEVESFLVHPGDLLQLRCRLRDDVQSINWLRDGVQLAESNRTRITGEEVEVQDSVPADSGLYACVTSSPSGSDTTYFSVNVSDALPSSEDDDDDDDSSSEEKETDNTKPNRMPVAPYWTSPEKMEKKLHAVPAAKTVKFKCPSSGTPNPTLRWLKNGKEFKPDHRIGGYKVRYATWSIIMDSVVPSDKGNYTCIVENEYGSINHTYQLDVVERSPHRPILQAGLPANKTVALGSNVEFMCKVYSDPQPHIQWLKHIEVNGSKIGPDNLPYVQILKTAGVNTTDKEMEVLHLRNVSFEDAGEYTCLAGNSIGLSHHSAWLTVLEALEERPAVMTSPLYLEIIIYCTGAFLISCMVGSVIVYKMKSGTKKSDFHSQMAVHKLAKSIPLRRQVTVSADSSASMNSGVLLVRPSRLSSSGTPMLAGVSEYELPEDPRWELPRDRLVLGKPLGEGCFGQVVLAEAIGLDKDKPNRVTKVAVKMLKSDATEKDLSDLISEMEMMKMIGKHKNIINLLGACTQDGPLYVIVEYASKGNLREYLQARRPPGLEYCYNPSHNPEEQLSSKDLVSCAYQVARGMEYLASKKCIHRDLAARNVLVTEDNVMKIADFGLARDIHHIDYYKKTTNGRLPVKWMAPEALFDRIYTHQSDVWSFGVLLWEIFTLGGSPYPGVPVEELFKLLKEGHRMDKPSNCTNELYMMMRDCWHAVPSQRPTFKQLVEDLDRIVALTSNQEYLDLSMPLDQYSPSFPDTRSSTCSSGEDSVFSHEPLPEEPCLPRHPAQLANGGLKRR

HSF cell line = assay: Cytotoxicity on HSF normal cell line (SRB assay); type: cell-based; settings: HSF normal human skin fibroblast; mean of three ± SD
Description: The dichlorobenzimidazole derivative 10h was tested in Nawah scientific—Cairo—Egypt for its cytotoxic activity on HSF cell line as stated in the Additional file A [53, 54].
6. Analysis of 10h on HSF normal cell line
Human Skin Fibroblast (HSF) was obtained from Nawah Scientific Inc., (Mokatam, Cairo, Egypt). Cells were maintained in DMEM media supplemented with […] of streptomycin, 100 units/mL of penicillin and 10% of heat-inactivated fetal bovine serum in humidified, 5% (v/v) CO2atmosphere at 37 °C. Cell viability was assessed by SRB assay. Aliquots of 100 μL cell suspension (5x10^3 cells) were in 96-well plates and incubated in complete media for 24 h. Cells were treated with another aliquot of 100 μL media containing drugs at various concentrations.
After drug exposure, cells were fixed by replacing media with 150 μL of 10% TCA and incubated at 4 °C for 1 h. The TCA solution was removed, and the cells were washed 5 times with distilled water. Aliquots of 70 μL SRB solution (0.4% w/v) were added and incubated in a dark place at room temperature for 10 min. Plates were washed 3 times with 1% acetic acid and allowed to air-dry overnight. Then, 150 μL of TRIS (10 mM) was added to dissolve protein-bound SRB stain; the absorbance was measured at 540 nm using an Infinite F50 microplate reader (TECAN, Switzerland).
6.2. Dose response curve of 10h on HSF normal cell line
Figure 66. […]

HepG2 cell line = system: HepG2 cell line; set-up: method as in PMID 28505536, PMID 32053964; settings: antiproliferative activity; cited from earlier work

T1 sequence (P15056 whole entry): as the sequence (P15056 whole entry V600E) above, with E600V counted along it

Cc1ccc(-n2c(SCC(=O)Nc3ccc(-c4nc5ccccc5[nH]4)cc3)nc3ccccc3c2=O)cc1 [III]
IC50 (BRAFWT): 6.74 µM
IC50 (PDGFR-β): 0.03 µM
IC50 (FLT-3): 0.13 µM
IC50 (c-KIT): 0.12 µM
IC50 (BRAFV600E): 2.47 µM

O=C1Nc2ccc(Br)cc2/C1=N\NC(=O)c1ccc2[nH]c(-c3ccccc3)nc2c1 [IV]
IC50 (BRAFWT): 0.02 µM
IC50 (VEGFR-2): 0.18 µM
IC50 (FGFR-1): 1.65 µM
IC50 (BRAFV600E): 1.52 µM

CNC(=O)c1cc(Oc2ccc(NC(=O)Nc3ccc(Cl)c(C(F)(F)F)c3)cc2)ccn1 [Sorafenib, reference compound]
IC50 (HSF cell line): 2.25 ± 0.14 µM

CC(C)c1nc2ccccc2n1CC(=O)N/N=C/c1cccc(OCc2ccccc2)c1 [V]
IC50 (HepG2 cell line): 1.98 µM
